The record followed here is article PMC12735773, “Toward Brain NaV1.8 Imaging with [^11C]Suzetrigine” (Pharmaceuticals, 2025).

Test [1] addresses T1, NaV1.8 (Rattus norvegicus, UniProt Q62968).
T1 construct: gene Scn10a; native protein in rat brain sections
Kind of test: radioligand saturation binding autoradiography on rat brain sections, with homologous block.

Test [2] has as its target T1, NaV1.8. Kind of test: competition autoradiography, displacement of [^11C]suzetrigine on rat brain sections. Conditions: read-out: % reduction of binding at 2 μM.

Structures are written as SMILES.

T1 sequence (Q62968 whole entry): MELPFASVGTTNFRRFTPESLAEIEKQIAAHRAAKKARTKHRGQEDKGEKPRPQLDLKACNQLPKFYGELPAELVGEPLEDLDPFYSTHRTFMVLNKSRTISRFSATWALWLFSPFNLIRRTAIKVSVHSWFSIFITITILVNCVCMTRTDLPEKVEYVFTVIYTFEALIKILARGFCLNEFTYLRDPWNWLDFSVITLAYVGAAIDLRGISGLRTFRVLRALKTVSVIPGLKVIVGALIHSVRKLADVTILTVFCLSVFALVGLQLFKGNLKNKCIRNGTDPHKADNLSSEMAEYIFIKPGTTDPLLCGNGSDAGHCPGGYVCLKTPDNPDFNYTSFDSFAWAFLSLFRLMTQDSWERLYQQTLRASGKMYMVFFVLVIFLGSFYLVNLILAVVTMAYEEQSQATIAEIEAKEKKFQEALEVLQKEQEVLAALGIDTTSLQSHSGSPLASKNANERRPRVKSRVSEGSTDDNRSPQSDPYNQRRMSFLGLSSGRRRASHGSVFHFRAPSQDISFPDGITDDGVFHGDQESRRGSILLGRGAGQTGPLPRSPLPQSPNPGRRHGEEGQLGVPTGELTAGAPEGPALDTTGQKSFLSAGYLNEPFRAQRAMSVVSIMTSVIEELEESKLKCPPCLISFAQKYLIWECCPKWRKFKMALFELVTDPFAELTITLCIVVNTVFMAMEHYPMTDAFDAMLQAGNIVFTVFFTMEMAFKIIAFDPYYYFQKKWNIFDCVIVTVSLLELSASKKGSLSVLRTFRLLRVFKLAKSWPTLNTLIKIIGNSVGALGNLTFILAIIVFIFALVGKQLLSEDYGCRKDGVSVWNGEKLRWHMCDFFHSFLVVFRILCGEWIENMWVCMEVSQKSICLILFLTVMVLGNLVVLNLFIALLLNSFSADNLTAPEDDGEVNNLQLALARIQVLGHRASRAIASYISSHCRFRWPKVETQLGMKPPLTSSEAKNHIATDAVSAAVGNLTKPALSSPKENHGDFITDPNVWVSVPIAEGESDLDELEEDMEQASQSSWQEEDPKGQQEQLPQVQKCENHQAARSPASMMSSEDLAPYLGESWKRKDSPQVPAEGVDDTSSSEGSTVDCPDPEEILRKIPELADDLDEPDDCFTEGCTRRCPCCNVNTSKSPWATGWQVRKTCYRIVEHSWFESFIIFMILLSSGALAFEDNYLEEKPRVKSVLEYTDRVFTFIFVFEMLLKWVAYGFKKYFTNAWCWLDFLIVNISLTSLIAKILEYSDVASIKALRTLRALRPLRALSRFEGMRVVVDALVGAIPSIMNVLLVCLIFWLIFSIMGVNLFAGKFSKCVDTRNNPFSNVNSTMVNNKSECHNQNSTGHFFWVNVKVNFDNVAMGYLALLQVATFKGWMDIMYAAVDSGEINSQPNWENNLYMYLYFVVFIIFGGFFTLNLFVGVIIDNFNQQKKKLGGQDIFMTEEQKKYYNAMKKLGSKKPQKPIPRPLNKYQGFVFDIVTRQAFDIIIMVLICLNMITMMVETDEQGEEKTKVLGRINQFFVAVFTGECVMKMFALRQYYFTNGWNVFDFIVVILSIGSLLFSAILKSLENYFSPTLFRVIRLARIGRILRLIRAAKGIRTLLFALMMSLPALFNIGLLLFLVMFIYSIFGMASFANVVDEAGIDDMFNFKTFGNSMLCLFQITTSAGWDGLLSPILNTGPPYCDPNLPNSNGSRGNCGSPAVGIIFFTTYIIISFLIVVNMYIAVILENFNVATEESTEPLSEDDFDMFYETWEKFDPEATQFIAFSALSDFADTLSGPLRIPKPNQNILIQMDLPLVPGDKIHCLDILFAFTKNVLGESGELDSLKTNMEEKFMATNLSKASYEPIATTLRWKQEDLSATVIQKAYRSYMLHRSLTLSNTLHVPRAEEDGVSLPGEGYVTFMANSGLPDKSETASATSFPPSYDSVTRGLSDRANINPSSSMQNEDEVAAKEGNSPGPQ

As usually defined, the Kd is the equilibrium constant for the complex coming apart. Low values mean a tighter complex, high ones a looser complex. Turning to `COc1c([C@H]2[C@H](C(=O)Nc3ccnc(C(N)=O)c3)O[C@@](C)(C(F)(F)F)[C@H]2C)ccc(F)c1F` [compound 2, suzetrigine], in test [1], the affinity, expressed as Kd, was 0.1 nM. With `COc1cc(NC(=O)c2ccc(-c3ccc(Cl)cc3)o2)cc(OC)c1` [A-803467], the inhibition at 2 µM in test [2] was around 50%.
